Tests used:
hT2R75 = hT2R75 (Homo sapiens (Human), UniProt P59540); assay: hT2R panel inhibition, transient HEK293 G16g44, agonist Strychnine 1 μM; format: cell-based; settings: HEK293, read-out: screening result against bitter receptor 75, compound at 25 μM; receptor activated to EC80 with the corresponding agonist
hT2R71 = hT2R71 (Homo sapiens (Human), UniProt P59536); assay: hT2R panel inhibition, transient HEK293 G16g44, agonist Picric Acid 10 μM; format: cell-based; settings: HEK293, compound at 25 μM; receptor activated to EC80 with the corresponding agonist; read-out: screening result against bitter receptor 71
Procedure, shortened: (§1)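 Agonist concentrations were set at EC80 for each receptor. Activity was compared with and without the test compound, and the reduction recorded as inhibition, across 22 individually transfected human T2Rs.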

hT2R65 = assay: hT2R panel inhibition, transient HEK293 G16g44, agonist Oleuropein 1 mM; format: cell-based, human; settings: compound at 25 μM; receptor activated to EC80 with the corresponding agonist
Procedure, shortened: as §1

hT2R64 = hT2R64 (Homo sapiens (Human), UniProt P59538); assay: hT2R panel inhibition, transient HEK293 G16g44, agonist Aristolochic Acid 1 μM; format: cell-based; settings: HEK293, compound at 25 μM; receptor activated to EC80 with the corresponding agonist; read-out: screening result against bitter receptor 64
Procedure, shortened: as §1

hT2R5 = hT2R5 (Homo sapiens (Human), UniProt Q9NYW4); assay: hT2R panel inhibition, transient HEK293 G16g44, agonist Picoline 10 mM; format: cell-based; settings: HEK293, compound at 25 μM; receptor activated to EC80 with the corresponding agonist; read-out: screening result against bitter receptor 5
Procedure, shortened: as §1

hT2R44 = assay: hT2R panel inhibition, transient HEK293 G16g44, agonist Denatonium 0.5 μM; format: cell-based, human; settings: compound at 25 μM; receptor activated to EC80 with the corresponding agonist
Procedure, shortened: as §1

hT2R16 = hT2R16 (Homo sapiens (Human), UniProt Q9NYV7); assay: hT2R panel inhibition, transient HEK293 G16g44, agonist Salicin 1 mM; format: cell-based; settings: HEK293, compound at 25 μM; receptor activated to EC80 with the corresponding agonist; read-out: screening result against bitter receptor 16
Procedure, shortened: as §1

hT2R4 = hT2R4 (Homo sapiens (Human), UniProt Q9NYW5); assay: hT2R panel inhibition, transient HEK293 G16g44, agonist Chloroquine pH6.5 5 mM; format: cell-based; settings: HEK293, compound at 25 μM; receptor activated to EC80 with the corresponding agonist; class symbols; read-out: screening result against bitter receptor 4
Procedure, shortened: as §1

hT2R9 = hT2R9 (Homo sapiens (Human), UniProt Q9NYW1); assay: hT2R panel inhibition, transient HEK293 G16g44, agonist Ofloxacin 1 mM; format: cell-based; settings: HEK293, compound at 25 μM; receptor activated to EC80 with the corresponding agonist; read-out: screening result against bitter receptor 9
Protocol: Specifically, in order to evaluate the inhibitory selectivity of the Compound C compound, this compound was tested against 22 human T2Rs which were deorphaned by Senomyx. These receptors and the bitter ligands that activate these human T2Rs are reported in earlier patent applications which are incorporated by reference herein. These 22 human T2Rs are hT2R1, 3, 4, 5, 7, 8, 9, 10, 13, 14, 16, 44, 51, 54, 55, 61, 63, 64, 65, 67, 71 and 75. The amino acid and nucleic acid sequences of all of these T2Rs may be found in these earlier patent applications. These human T2Rs were each individually transiently transfected into HEK293 cells that stably express the promiscuous G protein G16g44 and functional assays were effected using these receptors as disclosed in these same patent applications. […] The ligands were used at EC80 concentration levels. The list of bitter ligands utilized and the tested ligand concentrations are contained in Table 5 of this example.
Relating to the foregoing, FIG. 5 contains experimental results wherein Compound C was tested with different agonist compounds. The inhibition activity is represented by the reduction of receptor activity in the presence of Compound C. […] These 13 hT2Rs are hT2R3, 7, 10, 14, 16, 44, 51, 55, 61, 63, 64, 65, and 71.

hT2R3 = hT2R3 (Homo sapiens (Human), UniProt Q9NYW6); assay: hT2R panel inhibition, transient HEK293 G16g44, agonist Chloroquine pH6.5 50 μM; format: cell-based; settings: HEK293, compound at 25 μM; receptor activated to EC80 with the corresponding agonist; read-out: screening result against bitter receptor 3
Procedure, shortened: as §1

hT2R61 = hT2R61 (Homo sapiens (Human), UniProt P59537); assay: hT2R panel inhibition, transient HEK293 G16g44, agonist Aristolochic Acid 25 nM; format: cell-based; settings: HEK293, compound at 25 μM; receptor activated to EC80 with the corresponding agonist; read-out: screening result against bitter receptor 61
Procedure, shortened: as §1

hT2R10 = hT2R10 (Homo sapiens (Human), UniProt Q9NYW0); assay: hT2R panel inhibition, transient HEK293 G16g44, agonist Strychnine 50 μM; format: cell-based; settings: HEK293, read-out: screening result against bitter receptor 10, compound at 25 μM; receptor activated to EC80 with the corresponding agonist
hT2R7 = hT2R7 (Homo sapiens (Human), UniProt Q9NYW3); assay: hT2R panel inhibition, transient HEK293 G16g44, agonist Chloroquine pH6.5 10 mM; format: cell-based; settings: HEK293, compound at 25 μM; receptor activated to EC80 with the corresponding agonist; read-out: screening result against bitter receptor 7
Procedure, shortened: as §1

hT2R55 = assay: hT2R panel inhibition, transient HEK293 G16g44, agonist Cinchonine 150 μM; format: cell-based, human; settings: compound at 25 μM; receptor activated to EC80 with the corresponding agonist
Procedure, shortened: as §1

hT2R14 [1] = molecular target: T1, hT2R14 (Homo sapiens (Human), UniProt Q9NYV8); assay: hT2R panel inhibition, transient HEK293 G16g44, agonist Aristolochic Acid 2 μM; format: cell-based; settings: HEK293, compound at 25 μM; receptor activated to EC80 with the corresponding agonist; read-out: screening result against bitter receptor 14
Procedure, shortened: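 Each hT2R was transiently transfected into HEK293 cells stably expressing G16g44 and assayed functionally for inhibition of agonist response. Agonists were applied at EC80: andrographolide at 0.5 mM for hT2R8 and aristolochic acid at 2 μM for hT2R14.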

hT2R14 [2] = molecular target: T1, hT2R14; assay: hT2R14 antagonist high-throughput FLIPR assay, stable cell line with G16g44, agonist aristolochic acid; format: cell-based; settings: Table C; read-out: hT2R14 IC50
Procedure, shortened: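 HEK293 cells stably expressing hT2R14 with chimeric G16g44 were stimulated with aristolochic acid (3 μM), giving 70-80% of maximal receptor activity. Test compounds were added together with the agonist, and antagonism was read as fluorescent calcium signal on FLIPR.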

hT2R54 = assay: hT2R panel inhibition, transient HEK293 G16g44, agonist Ranitidine 5 mM; format: cell-based, human; settings: compound at 25 μM; receptor activated to EC80 with the corresponding agonist
Procedure, shortened: as §1

hT2R63 = assay: hT2R panel inhibition, transient HEK293 G16g44, agonist Caffeine 1 mM or Andrographolide 100 μM; format: cell-based, human; settings: compound at 25 μM; receptor activated to EC80 with the corresponding agonist
Procedure, shortened: as §1

hT2R67 = assay: hT2R panel inhibition, transient HEK293 G16g44, agonist Andrographolide 5 μM; format: cell-based, human; settings: compound at 25 μM; receptor activated to EC80 with the corresponding agonist
Procedure, shortened: as §1

hT2R51 = hT2R51 (Homo sapiens (Human), UniProt P59533); assay: hT2R panel inhibition, transient HEK293 G16g44, agonist Prop 2.5 μM; format: cell-based; settings: HEK293, compound at 25 μM; receptor activated to EC80 with the corresponding agonist; read-out: screening result against bitter receptor 51
Procedure, shortened: as §1

hT2R71, sequence (P59536 whole entry): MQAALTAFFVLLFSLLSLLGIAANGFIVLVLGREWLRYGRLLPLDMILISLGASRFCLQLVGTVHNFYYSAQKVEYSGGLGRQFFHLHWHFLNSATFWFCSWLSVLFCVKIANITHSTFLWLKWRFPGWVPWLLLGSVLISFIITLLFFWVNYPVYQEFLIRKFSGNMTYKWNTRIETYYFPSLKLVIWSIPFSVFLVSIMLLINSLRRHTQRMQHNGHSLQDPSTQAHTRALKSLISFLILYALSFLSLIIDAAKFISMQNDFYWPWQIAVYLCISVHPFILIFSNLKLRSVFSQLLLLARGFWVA
T1 sequence (Q9NYV8 whole entry): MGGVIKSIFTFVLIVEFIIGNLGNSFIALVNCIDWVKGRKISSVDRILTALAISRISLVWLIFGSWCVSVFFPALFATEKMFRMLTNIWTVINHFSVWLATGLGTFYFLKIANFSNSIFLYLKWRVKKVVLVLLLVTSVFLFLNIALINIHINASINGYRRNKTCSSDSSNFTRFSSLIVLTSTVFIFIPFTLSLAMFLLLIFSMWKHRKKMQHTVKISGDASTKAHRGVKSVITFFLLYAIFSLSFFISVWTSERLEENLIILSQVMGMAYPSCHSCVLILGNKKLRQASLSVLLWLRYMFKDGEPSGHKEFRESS
hT2R61, sequence (P59537 whole entry): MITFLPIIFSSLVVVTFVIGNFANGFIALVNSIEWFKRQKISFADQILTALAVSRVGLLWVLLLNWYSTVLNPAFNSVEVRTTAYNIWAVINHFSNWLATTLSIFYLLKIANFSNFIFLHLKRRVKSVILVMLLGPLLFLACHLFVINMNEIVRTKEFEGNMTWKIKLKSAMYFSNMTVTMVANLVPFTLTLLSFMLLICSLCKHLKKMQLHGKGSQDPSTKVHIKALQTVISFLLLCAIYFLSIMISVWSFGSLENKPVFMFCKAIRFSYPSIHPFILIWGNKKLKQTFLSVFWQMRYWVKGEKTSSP
hT2R4, sequence (Q9NYW5 whole entry): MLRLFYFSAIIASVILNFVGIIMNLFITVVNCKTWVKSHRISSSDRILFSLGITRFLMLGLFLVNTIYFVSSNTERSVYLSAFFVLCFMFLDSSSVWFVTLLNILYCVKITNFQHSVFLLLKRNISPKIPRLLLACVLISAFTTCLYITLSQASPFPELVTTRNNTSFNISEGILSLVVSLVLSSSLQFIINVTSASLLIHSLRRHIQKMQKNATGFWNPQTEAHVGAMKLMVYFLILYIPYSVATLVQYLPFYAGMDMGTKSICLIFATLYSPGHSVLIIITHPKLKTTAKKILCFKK
hT2R10, sequence (Q9NYW0 whole entry): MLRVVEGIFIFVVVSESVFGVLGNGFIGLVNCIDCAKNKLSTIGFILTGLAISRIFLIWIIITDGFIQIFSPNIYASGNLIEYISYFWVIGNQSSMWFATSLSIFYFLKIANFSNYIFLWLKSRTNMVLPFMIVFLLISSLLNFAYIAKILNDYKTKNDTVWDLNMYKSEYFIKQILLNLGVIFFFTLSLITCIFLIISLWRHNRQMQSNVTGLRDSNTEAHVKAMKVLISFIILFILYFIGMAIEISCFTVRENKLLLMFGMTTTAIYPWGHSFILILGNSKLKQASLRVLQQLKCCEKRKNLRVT
hT2R5, sequence (Q9NYW4 whole entry): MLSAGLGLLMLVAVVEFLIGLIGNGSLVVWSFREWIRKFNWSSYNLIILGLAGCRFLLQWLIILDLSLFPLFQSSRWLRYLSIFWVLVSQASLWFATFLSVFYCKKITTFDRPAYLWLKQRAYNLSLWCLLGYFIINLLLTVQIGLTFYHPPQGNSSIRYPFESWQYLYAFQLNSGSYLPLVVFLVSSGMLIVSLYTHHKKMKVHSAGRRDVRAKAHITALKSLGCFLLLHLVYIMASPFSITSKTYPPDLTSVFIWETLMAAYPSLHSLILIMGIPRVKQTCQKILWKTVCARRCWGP
hT2R9, sequence (Q9NYW1 whole entry): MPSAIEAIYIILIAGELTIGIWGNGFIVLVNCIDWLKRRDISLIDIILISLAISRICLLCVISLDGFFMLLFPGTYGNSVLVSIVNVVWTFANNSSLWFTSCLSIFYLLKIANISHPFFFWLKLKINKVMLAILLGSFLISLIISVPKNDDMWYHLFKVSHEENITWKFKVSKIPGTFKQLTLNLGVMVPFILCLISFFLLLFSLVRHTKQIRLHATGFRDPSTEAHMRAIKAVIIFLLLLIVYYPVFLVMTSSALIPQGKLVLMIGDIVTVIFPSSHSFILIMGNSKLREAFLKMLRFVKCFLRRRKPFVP
hT2R64, sequence (P59538 whole entry): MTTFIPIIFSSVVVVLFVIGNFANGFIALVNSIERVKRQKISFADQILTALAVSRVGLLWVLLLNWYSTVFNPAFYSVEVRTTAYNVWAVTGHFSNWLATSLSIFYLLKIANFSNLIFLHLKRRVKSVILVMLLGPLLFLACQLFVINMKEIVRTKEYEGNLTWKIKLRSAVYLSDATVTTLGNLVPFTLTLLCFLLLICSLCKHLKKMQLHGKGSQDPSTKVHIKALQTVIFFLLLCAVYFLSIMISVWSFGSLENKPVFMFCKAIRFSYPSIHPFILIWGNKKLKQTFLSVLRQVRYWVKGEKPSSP
hT2R16, sequence (Q9NYV7 whole entry): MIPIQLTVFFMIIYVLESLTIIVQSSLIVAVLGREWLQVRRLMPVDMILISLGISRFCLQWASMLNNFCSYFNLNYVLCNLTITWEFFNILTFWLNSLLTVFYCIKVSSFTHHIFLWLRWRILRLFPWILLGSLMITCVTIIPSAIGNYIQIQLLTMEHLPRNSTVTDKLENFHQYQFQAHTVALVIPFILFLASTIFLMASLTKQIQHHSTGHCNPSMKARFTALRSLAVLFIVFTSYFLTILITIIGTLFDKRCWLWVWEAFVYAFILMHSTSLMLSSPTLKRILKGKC
hT2R3, sequence (Q9NYW6 whole entry): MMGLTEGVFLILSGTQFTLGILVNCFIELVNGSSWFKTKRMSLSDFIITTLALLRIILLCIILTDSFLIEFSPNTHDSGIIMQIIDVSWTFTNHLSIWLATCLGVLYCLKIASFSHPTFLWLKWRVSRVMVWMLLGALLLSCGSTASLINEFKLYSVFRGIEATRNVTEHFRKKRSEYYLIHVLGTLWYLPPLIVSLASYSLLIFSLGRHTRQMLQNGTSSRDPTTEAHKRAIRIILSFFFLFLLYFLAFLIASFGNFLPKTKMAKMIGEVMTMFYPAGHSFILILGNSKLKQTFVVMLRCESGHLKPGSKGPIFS
hT2R75, sequence (P59540 whole entry): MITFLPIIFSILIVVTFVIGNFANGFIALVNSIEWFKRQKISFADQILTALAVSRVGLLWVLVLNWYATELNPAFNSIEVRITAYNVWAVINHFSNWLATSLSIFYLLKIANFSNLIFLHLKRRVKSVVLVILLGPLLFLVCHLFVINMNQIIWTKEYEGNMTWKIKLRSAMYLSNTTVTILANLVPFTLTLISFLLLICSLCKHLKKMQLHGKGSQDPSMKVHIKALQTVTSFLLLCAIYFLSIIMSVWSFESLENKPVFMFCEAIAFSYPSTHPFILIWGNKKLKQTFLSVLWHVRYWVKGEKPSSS
hT2R7, sequence (Q9NYW3 whole entry): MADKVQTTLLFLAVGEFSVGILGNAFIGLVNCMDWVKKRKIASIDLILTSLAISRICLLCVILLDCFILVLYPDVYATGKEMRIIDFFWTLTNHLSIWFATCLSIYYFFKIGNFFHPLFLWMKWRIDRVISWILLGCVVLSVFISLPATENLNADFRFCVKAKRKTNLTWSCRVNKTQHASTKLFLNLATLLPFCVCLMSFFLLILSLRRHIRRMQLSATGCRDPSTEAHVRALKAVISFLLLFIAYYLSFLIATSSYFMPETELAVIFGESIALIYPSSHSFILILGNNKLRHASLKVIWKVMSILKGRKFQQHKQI
hT2R51, sequence (P59533 whole entry): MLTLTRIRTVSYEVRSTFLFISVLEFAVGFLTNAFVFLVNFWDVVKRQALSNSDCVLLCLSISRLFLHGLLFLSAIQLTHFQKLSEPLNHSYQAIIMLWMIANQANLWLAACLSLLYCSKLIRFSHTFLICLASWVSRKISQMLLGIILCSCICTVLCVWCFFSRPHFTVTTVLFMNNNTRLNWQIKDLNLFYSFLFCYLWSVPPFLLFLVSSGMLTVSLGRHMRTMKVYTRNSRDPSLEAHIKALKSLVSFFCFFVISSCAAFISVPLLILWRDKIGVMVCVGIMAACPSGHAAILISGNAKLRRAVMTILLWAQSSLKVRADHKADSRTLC

| Compound | inhibition at 25 µM (hT2R75) [%] | inhibition at 25 µM (hT2R71) [%] | screening result against bitter receptor 65 (hT2R65) | inhibition at 25 µM (hT2R64) [%] | inhibition at 25 µM (hT2R5) [%] | screening result against bitter receptor 44 (hT2R44) | inhibition at 25 µM (hT2R16) [%] | inhibition at 25 µM (hT2R4) [%] | inhibition at 25 µM (hT2R9) [%] | inhibition at 25 µM (hT2R3) [%] | inhibition at 25 µM (hT2R61) [%] | inhibition at 25 µM (hT2R10) [%] | inhibition at 25 µM (hT2R7) [%] | screening result against bitter receptor 55 (hT2R55) | inhibition at 25 µM (hT2R14 [1]) [%] | IC50 (hT2R14 [2]) [nM] | screening result against bitter receptor 54 (hT2R54) | screening result against bitter receptor 63 (hT2R63) | screening result against bitter receptor 67 (hT2R67) | inhibition at 25 µM (hT2R51) [%] |
| --- | --- | --- | --- | --- | --- | --- | --- | --- | --- | --- | --- | --- | --- | --- | --- | --- | --- | --- | --- | --- |
| COc1ccc(CN(Cc2ccccc2)S(=O)(=O)Cc2ccc(C(=O)O)cc2)cc1 [Example 5-16, 4-((N-benzyl-N-(4-methoxybenzyl)sulfamoyl)methyl)benzoic acid] | 20 to 40 | 40 to 60 | + (20% to 40% inhibition = +) | > 80 | 20 to 40 | +++ (60% to 80% inhibition = +++) | 20 to 40 | 20 to 40 | 20 to 40 | 40 to 60 | 60 to 80 | 20 to 40 | 20 to 40 | ++++ (80% or greater inhibition = ++++) | 20 to 40 | – | – | – | – | – |
| COc1ccccc1CN(Cc1ccc(C(=O)O)cc1)S(=O)(=O)c1ccccc1 [Example 5-100, 4-((N-(2-methoxybenzyl)phenylsulfonamido)methyl) benzoic acid] | 20 to 40 | 60 to 80 | ++ (40% to 60% inhibition = ++) | > 80 | 20 to 40 | +++ (60% to 80% inhibition = +++) | 20 to 40 | 40 to 60 | 20 to 40 | 20 to 40 | 60 to 80 | 20 to 40 | 20 to 40 | +++ (60% to 80% inhibition = +++) | 40 to 60 | 1290 | + (20% to 40% inhibition = +) | + (20% to 40% inhibition = +) | – | – |
| O=C(O)c1ccc(CN(Cc2cccc(F)c2)S(=O)(=O)c2ccccc2)cc1 [Example 5-104, 4-((N-(3-fluorobenzyl)phenylsulfonamido)methyl)-benzoic acid] | 40 to 60 | 60 to 80 | +++ (60% to 80% inhibition = +++) | > 80 | 40 to 60 | +++ (60% to 80% inhibition = +++) | 20 to 40 | 40 to 60 | 20 to 40 | 40 to 60 | > 80 | 40 to 60 | 40 to 60 | +++ (60% to 80% inhibition = +++) | > 80 | 406 | + (20% to 40% inhibition = +) | ++ (40% to 60% inhibition = ++) | ++ (40% to 60% inhibition = ++) | 20 to 40 |
